The text below walks through data of patent US8192750B2, “Pharmaceutical composition for the treatment of otomycosis” (priority 2006, dated 2012).

Entries after “also recorded” stand apart in the source; their conditions may differ.

The conditions of data set [1]: cited from earlier work.
The nature of data set [2]: solubility of griseofulvin in different solvents. It counts as physicochemical. The settings on record: mixtures with carriers.

As for `COC1=CC(=O)C[C@@H](C)[C@]12Oc1c(Cl)c(OC)cc(OC)c1C2=O` [griseofulvin, Griseofulvin], the solubility in water entry in data set [1] is “insoluble in water”. For the same molecule, the “Solubility of griseofulvin in different solvents” value in data set [2] was “higher in admixture with high molecular weight substances, such as herbal agents (e.g. tea tree oil), but not in admixtures with saccharides or alcohol; also recorded: higher in mixtures with high molecular weight carriers such as herbal agents, but not with saccharides or alcohol”.
